Measurements: patent US6541483B2, “Acridone-derived compounds useful as antineoplastic and antiretroviral agents” (The United States of America as represented by the …, priority 1996, dated 2003)
Where two headings read alike, the source gives them in different places.

What was measured:
[1] = test system: HIV-1 LTR-directed chloramphenicol acetyltransferase (CAT) activity; assay: LTR-directed CAT activity in BF-24 cells; assay type: cell-based; settings: 24 h, temacrazine up to 5 μM
Excerpt: Initiation and regulation of HIV-1 transcription requires a complex series of interactions with cellular transcription factors, such as NFkB, SP-1 and AP-1, and the participation of cellular factors in the transcriptional complex. In addition, the post-integrative model used here requires TNFα stimulated U1 and ACH-2 cells, this model requires not only the participation of the NFkB transcriptional complex, and also components of the TNFα signaling pathway. In order to rule out that temacrazine was non-specifically effecting transcription or down-regulating replication by interfering with the TNFα signal pathway, LTR-directed chloramphenicol acetyltransferase (CAT) activity was measured in BF-24 cells. BF-24 cells are derived from the THP-1 monocytic cell line and carry a stably integrated CAT gene under the transcriptional control of the HIV-1 LTR (S. Schwartz, et al., Proc. Natl. Acad. Sci. USA 86:7200 (1989); B. K. Felber, et al., Science 239:184 (1988)). The LTR in this monocytic cell line is inducible by IL-6, PMA and TNFα, and produces enzymatically active chloramphenicol transferase (“CAT”). […]
CAT activity was determined using a fluorescent Bodipy conjugated chloramphenicol after 18 h of reaction with 50 μg of protein extract containing Acetyl CoA.

[2] = test system: cell lines derived from tumor xenografts; assay: clonogenic assay, mean over all tumor xenograft lines; assay type: cell-based, human; settings: all of the lines tested
Method: (§1) The activity of compound (4) was tested against several tumor xenografts in vitro. The experiments was carried out on cell lines derived from these tumors, utilizing a standard clonogenic assay protocol.

[3] = test system: gastric carcinoma GFX (251/14); assay: clonogenic assay, gastric carcinoma line; assay type: cell-based, human
Method: as §1

[4] = test system: prostate cancer cell line PRXF (DU145X/2); assay: clonogenic assay, prostate cancer line DU145X; assay type: cell-based, human
Method: as §1

[5] = test system: mammary tumor MACL (MCF7X/13); assay: clonogenic assay, mammary tumor line; assay type: cell-based, human
Method: as §1

[6] = test system: renal carcinoma RXF (1220/5); assay: clonogenic assay, renal carcinoma line; assay type: cell-based, human
Method: as §1

[7] = test system: melanoma MEXF (514/12); assay: clonogenic assay, melanoma line; assay type: cell-based, human
Method: as §1

[8] = test system: prostate cancer cell line PRXF (PX2M/27), PC3M; assay: clonogenic assay, prostate cancer line PC3M; assay type: cell-based, human
Method: as §1

[9] = test system: attachment of HIV-1RF to CEM-SS cells; assay: attachment of virions to CEM-SS cells (cell-bound p24 ELISA); assay type: cell-based; settings: Human immunodeficiency virus 1, CEM-SS, read-out: Attachment ID50
Excerpt: (§2) Based on the findings thus far our efforts have focused on biological assays of the temacrazine congener.

[10] = test system: HIV-1ADA; assay: anti-HIV-1 activity in monocyte/macrophage cultures; assay type: cell-based; settings: Human immunodeficiency virus 1, read-out: Mo/Mφ EC50
Method: (§3) The antiviral properties of the WMC series of compounds were evaluated. First, all compounds were tested for their ability to inhibit HIV-1 replication in cell culture using the XTT cytoprotection assay. This assay measures the concentration-dependent capacity of compounds to protect CEM-SS cells from the cytopathic effects of HIV-1. […] Thus, temacrazine was the most efficacious compound in the XTT cytoprotection assay. This conclusion was also reached when the compounds were tested for anti-HIV-1 activity against HIV-1ADA in human monocyte/macrophage cultures (Table 1).

[11] = test system: HIV-1; assay: XTT cytoprotection assay in CEM-SS cells (antiviral EC50); assay type: cell-based; settings: for XTT Assay EC50: Table 1; for cytoprotective activity: HIV-1-infected CEM SS leukemia cells
Excerpt: (§4) Briefly, the infected cells in culture are killed by the virus, and the cytotoxicity is detected by the formation of color due to the […] of a formazan dye (XTT) by enzymes released by the dying cells (Weislow et al., J. Natl. Cancer Inst. 81:577-586, 1989). An effective antiviral drug is able to protect the infected cells from cytotoxicity by inhibiting some vital function of the virus. […] FIGS. 4 and 5 show the cytoprotective activity of WMC26 and WMC42. Since many drugs can also be toxic to cells in their own right, a parallel experiment is carried out wherein uninfected cells are treated with the drugs until a concentration is reached where the cells are killed by the action of the drug.
(§5) As a result of these preliminary data, additional experiments were carried out to establish the antiviral activity in other cell lines, using a variety of protocols. The preliminary experiments in lymphocytes were confirmed using infected macrophages. Much more extensive experiments were carried out in HIV-1-infected CEM SS leukemia cells. […] However, two derivatives were found which had low antileukemic activity while maintaining high antiviral activity. […] This gives a therapeutic index of more than 3 orders of magnitude. The corresponding therapeutic index for WMC50 is about 100-200, which is quite acceptable. Additional experiments were carried out on WMC-70. […] Further, WMC-70 appears to affect post-transcription events in the virus. […] While the inhibition of integration appears to be the principal mechanism by which this compound exerts its antiviral activity, there are perhaps other mechanisms which are also involved in the therapeutic action of this drug, and by extension, of other antiviral drugs of this class.
as §3

[12] = test system: human monocyte/macrophage cultures; assay: toxicity in monocyte/macrophage cultures; assay type: cell-based; settings: Homo sapiens, read-out: Mo/Mφ IC50
Method: as §3

[13] = target: HIV-1 reverse transcriptase (Human immunodeficiency virus type 1 group M subtype B, UniProt P04585); assay: reverse transcriptase enzyme activity; assay type: biochemical
Excerpt: as §2

[14] = test system: CEM-SS cells; assay: XTT assay toxicity in CEM-SS cells (IC50); assay type: cell-based; settings: Homo sapiens, CEM-SS
Excerpt: as §4, §5, §3

[15] = target: p7 nucleocapsid protein zinc fingers (Human immunodeficiency virus type 1 group M subtype B, UniProt P04591); assay: p7NC zinc finger fluorescence assays (TSQ, Trp37); assay type: biochemical, HIV-1
Excerpt: as §2

[16] = test system: HIV-1; assay: XTT cytoprotection assay in HIV-1 infected peripheral blood lymphocytes; assay type: cell-based; settings: for cytoprotective activity: HIV-1 infected lymphocytes versus uninfected cells; for therapeutic index: lymphocyte cytoprotection assay
Excerpt: These compounds and several others were then examined in a cytoprotection assay involving peripheral blood lymphocytes which had been infected with HIV-1.
as §4

[17] = test system: leukemia; settings: Cholody et al. 1995; cited from earlier work
[18] = target: HIV-1 integrase (Human immunodeficiency virus type 1 group M subtype B, UniProt P04585); assay: in vitro integration and disintegration with full length purified integrase; assay type: biochemical; set-up: utilized the full length purified HIV-1 integrase; settings: full length purified HIV-1 integrase
[19] = test system: HIV-1RF; assay: nude mouse hollow fiber model of HIV-1 replication; assay type: in vivo, nude mice; settings: 40 mg/Kg q8h intraperitoneally
Excerpt: The novel mechanism of action of temacrazine and its broad range of activity against HIV-1 and its high therapeutic indexes led us to assess its in vivo and anti-viral properties in a nude mouse hollow fiber model of HIV-1 replication. Briefly, CEM-SS cells are infected with HIV-1RF and placed into hollow fibers and implanted intraperitoneal or subcutaneously into nude mice. […] Similarly, mice are being treated by oral and intravenous administration of temacrazine. Peritoneal washes and serum samples were collected and p24 expression determined by antigen capture. Intraperitoneal administration of temacrazine reduced the amount of detectable p24 in peritoneal washes by 5 to 10 fold independently of the dosage schedule. […] Thus, temacrazine reduces HIV-1 replication in vivo.

## Cc1cn([C@H]2C[C@H](N=[N+]=[N-])[C@@H](CO)O2)c(=O)[nH]c1=O [AZT, reference compound]
[1]
  CAT induction by TNFα: inactive

## O=c1c2ccccc2n2cnc3ccc(NCCCN4CCN(CCCNc5ccc6ncn7c8ccccc8c(=O)c5c67)CC4)c1c32 [Compound 4, 1,4-bis[3-[(6-oxo-6H-imidazo[4,5,1-de]-acridin-5-yl)amino]propyl]piperazine]
[2]
  mean IC70 (concentration resulting in 70% killing of the tumor cells): 2.3 µg/mL
[3]
  sensitivity to the drug: sensitive at the median dose
[4]
  sensitivity to the drug: very sensitive
[5]
  sensitivity to the drug: over twice the median dose
[6]
  sensitivity to the drug: completely insensitive
[7]
  sensitivity to the drug: completely insensitive
[8]; PC3M
  IC70: less than 1 nanogram/mL
[8]; PRXF PX2M/27
  sensitivity to the drug: very sensitive

## CN(CCCNc1ccc2ncn3c4ccccc4c(=O)c1c23)CCCNc1ccc2ncn3c4ccccc4c(=O)c1c23 [Compound 682401]
[9]
  IC50: > 100000 nM
[10]
  EC50: 50 nM
[11]; CEM-SS cells
  XTT Assay EC50: Inactive
[12]
  IC50: 1000 nM
[13]
  IC50: > 100000 nM

## CN(CCCNc1ccc2ncn3c4ccccc4c(=O)c1c23)CCCNc1ccc2nnn3c4ccccc4c(=O)c1c23 [Compound 682402]
[9]
  IC50: > 100000 nM
[10]
  EC50: 160 nM
[11]; CEM-SS cells
  XTT Assay EC50: Inactive
[12]
  IC50: 10000 nM
[13]
  IC50: > 100000 nM

## CN(CCCNc1ccc2nnn3c4ccccc4c(=O)c1c23)CCCNc1ccc2nnn3c4ccccc4c(=O)c1c23 [Compound 682403]
[11]; CEM-SS cells
  XTT Assay EC50: Inactive

## O=c1c2ccccc2n2cnc3ccc(NCCCN4CCN(CCCNc5ccc6nnn7c8ccccc8c(=O)c5c67)CC4)c1c32 [Compound 682404]
[14]; read-out: IC50 toxicity value, XTT assay
  IC50: 158 nM
[14]; read-out: XTT Assay IC50
  IC50: 158 nM
[9]
  IC50: > 100000 nM
[10]
  EC50: 100 nM
[11]; CEM SS cells
  therapeutic index: 100-200
[11]
  cytoprotective activity: cytoprotective at very low concentrations
[11]; Human immunodeficiency virus 1, CEM-SS, read-out: XTT Assay EC50
  EC50: 0.41 nM
[11]; Human immunodeficiency virus 1, CEM-SS cells, read-out: EC50 antiviral value, XTT cytoprotection assay
  EC50: 0.41 nM
[12]
  IC50: 10000 nM
[13]
  IC50: 35000 nM

## Cc1cn([C@H]2C[C@H](N=[N+]=[N-])[C@@H](CO[P@](=O)(O)O[P@](=O)(O)OP(=O)(O)O)O2)c(=O)[nH]c1=O [Compound A2TTP, reference compound]
[13]; rAdT Template/primer, control compound, read-out: I50 RT Enzyme Activity
  IC50: 27 nM

## O=S1(=O)C[C@H](O)[C@H](O)CS1 [NSC 624151]
[15]
  NCp7 TSQ (Increase in RFU/90 min): 17 (NSC 624151) RFU/90 min
  NCp7 Trp37 (Decrease in RFU/10 min): 145 (NSC 624151) RFU/10 min

## CC(C)OC(=O)c1cc(NC(=S)OC(C)C)ccc1Cl [UC38, reference compound]
[13]; rCdG Template/primer, control compound, read-out: I50 RT Enzyme Activity
  IC50: 6 nM

## CN(CCCNc1ccc2ncn3c4ccccc4c(=O)c1c23)CCCNc1ccc2ncn3c4ccccc4c(=O)c1c23 [WMC26]
[11]
  cytoprotective activity: could not be shown to be cytoprotective
[16]
  cytoprotective activity: able to protect the infected lymphocytes at concentrations far lower than those which resulted in drug induced killing
  therapeutic index: very good therapeutic indices
[17]
  cytotoxicity to leukemia: very potently (nanomolar levels) cytotoxic
[18]
  inhibition of integration and disintegration steps: inhibited both the integration and disintegration steps

## CN(CCCNc1ccc2ncn3c4ccccc4c(=O)c1c23)CCCNc1ccc2nnn3c4ccccc4c(=O)c1c23 [WMC42]
[16]
  cytoprotective activity: able to protect the infected lymphocytes at concentrations far lower than those which resulted in drug induced killing
  therapeutic index: very good therapeutic indices
[18]
  inhibition of integration and disintegration steps: inhibited both the integration and disintegration steps

## Nc1ccn([C@H]2CC[C@@H](CO)O2)c(=O)n1 [ddC, reference compound]
[19]
  Peritoneal Wash p24, mean: 7 pg p24
  Serum p24, mean: 87 pg p24
